“And” between values parts separate entries of the source, which are not always exact repeats. Equal values may be shown once. Read-outs that look alike come from different tables or passages of the source. Peptide text beside a SMILES is read from it.
Test: Pharmacokinetics of repeated subcutaneous injection of F3 (10.0 mg/kg daily, 14 days)
Assay type: in vivo, Sprague Dawley rats
Settings: for accumulation in plasma: after 14 days of repeated s.c. injection at 10.0 mg/kg; for CL/F: read-out: Cl_F_obs (clearance rate) (converted)
Protocol: The first day of F3 administration was recorded as day 1. At least 0.5 ml blood samples were obtained alternatively from 3M/3F rats at pre- and post-F3 injection time periods (0, 0.5, 1, 2, 4, 6, 8, and 24 hr).
The concentration of F3 in rat plasma was determined by liquid chromatography-tandem mass spectrometry, using the method established by Kanglong Huacheng Co., Ltd. The analyte was assayed by liquid chromatography coupled with the tandem mass spectrometry (LC-MS/MS) method. The LC-MS/MS system consisted of a Shimadzu HPLC system (Kyoto, Japan) and an LCMS-8060 instrument (serial no. 011105500332 AE). The following were the LC conditions: column, HALO ES-C18 2.7 µ C18 160A (50 × 2.1 mm); gradient elution at 0.5 mL/min with 5% acetonitrile in water containing 0.1% formic acid or 95% acetonitrile in water containing 0.1% formic acid; and injection volume of 10 µL. A multiple reaction monitoring (MRM) method was selected for quantitative analysis. For analyte and internal standard, the optimum transitions were 519.50 > 129.15 (five charges) and 649.15 > 120.10 (four charges), 393.20 > 373.25, and 237.15 > 194.15, respectively. The instrumental parameters were set as follows: nebulizing gas flow was 3 L/min; heating gas flow was 10 L/min; interface temperature was 300°C; DL temperature was 250°C; and heat block temperature was 400°C.
PK parameters were estimated by a noncompartmental model with the calculation model of “Linear Trapezoidal Linear Interpolation” using WinNonlin (Phoenix TM, version 8.1). If the plasma F3 was detected, the following pharmacokinetic parameters were measured and calculated: Cmax (maximum blood concentration), Tmax (peak time), T1/2 (elimination half-life), AUC (area under plasma concentration-time curve), Vz_F_obs (apparent distribution volume), Cl_F_obs (clearance rate), and MRTInf_obs (mean residence time).

[1] = female SD rats, s.c. 10.0 mg/kg daily x14 d, 14th dose, plasma, LC-MS/MS
[2] = female, Sprague-Dawley, rat, plasma, sc, 10 mg/kg, female SD rats, s.c. 10.0 mg/kg daily x14 d, 1st dose, LC-MS/MS
[3] = female, Sprague-Dawley, rat, plasma, sc, 10 mg/kg, female SD rats, s.c. 10.0 mg/kg daily x14 d, 14th dose, LC-MS/MS
[4] = male, Sprague-Dawley, rat, plasma, sc, 10 mg/kg, male SD rats, s.c. 10.0 mg/kg daily x14 d, 1st dose, LC-MS/MS
[5] = male, Sprague-Dawley, rat, plasma, sc, 10 mg/kg, male SD rats, s.c. 10.0 mg/kg daily x14 d, 14th dose, LC-MS/MS

CC[C@H](C)[C@H](NC(=O)[C@H](CO)NC(=O)CNC(=O)[C@H](CC(C)C)NC(=O)[C@@H](NC(=O)CNC(=O)[C@H](Cc1ccccc1)NC(=O)[C@H](CC(C)C)NC(=O)CN)C(C)C)C(=O)N[C@@H](C)C(=O)N[C@@H](CCCCN)C(=O)N[C@@H](Cc1c[nH]cn1)C(=O)N[C@H](C(=O)N[C@@H](CC(C)C)C(=O)N1CCC[C@H]1C(=O)N[C@@H](Cc1c[nH]cn1)C(=O)N[C@H](C(=O)N[C@H](C(=O)N1CCC[C@H]1C(=O)N[C@H](C(=O)N[C@H](C(=O)N[C@@H](C)C(=O)N[C@@H](CCC(=O)O)C(=O)N[C@@H](CCCCN)C(=O)N[C@@H](CC(C)C)C(N)=O)[C@@H](C)CC)C(C)C)C(C)C)C(C)C)C(C)C [F3, Caerin 1.9] (H-GLFGVLGSIAKHVLPHVVPVIAEKL-NH2)
accumulation in plasma (SD rats, 10 mg/kg): no F3 accumulation
accumulation in plasma (SD rats, listed as Caerin 1.9, 10 mg/kg): no accumulation
Tmax (SD rats, s.c., over single 1.0 mg/kg and repeated 10.0 mg/kg groups): between half an hour and one hour
AUC_%Extrap_obs (female SD rats, s.c. 10.0 mg/kg daily x14 d, 1st dose, plasma, LC-MS/MS): 1.48%
T max (female SD rats, s.c. 10.0 mg/kg daily x14 d, 1st dose, plasma, LC-MS/MS, 10 mg/kg): 1 h and 1.00 h
AUC_%Extrap_obs [1]: 0.658%
T max [1]: 1.00 h
AUC(0-inf) (female, Sprague Dawley, rat, plasma, sc, 10 mg/kg, female SD rats, s.c. 10.0 mg/kg daily x14 d, 14th dose, LC-MS/MS): 1110 ng·h/mL
AUC(0-inf) [2]: 751 ng·h/mL
AUC(0-t) [2]: 740 ng·h/mL
Cmax [2]: 256 ng/mL
half-life [2]: 1.33 h
CL/F (female, Sprague-Dawley, rat, plasma, sc, 10 mg/kg, female SD rats, s.c. 10.0 mg/kg daily x14 d, 1st dose, plasma, LC-MS/MS): 222 mL/min/kg
MRT (female, Sprague-Dawley, rat, plasma, sc, 10 mg/kg, female SD rats, s.c. 10.0 mg/kg daily x14 d, 1st dose, plasma, LC-MS/MS, read-out: MRTInf_obs (mean residence time)): 2.96 h
AUC(0-t) [3]: 1100 ng·h/mL
Cmax [3]: 496 ng/mL
half-life [3]: 1.03 h
CL/F (female, Sprague-Dawley, rat, plasma, sc, 10 mg/kg, female SD rats, s.c. 10.0 mg/kg daily x14 d, 14th dose, plasma, LC-MS/MS): 150 mL/min/kg
MRT at 14 days (female, Sprague-Dawley, rat, plasma, sc, 10 mg/kg, female SD rats, s.c. 10.0 mg/kg daily x14 d, 14th dose, plasma, LC-MS/MS, read-out: MRTInf_obs (mean residence time)): 1.91 h
AUC_%Extrap_obs (male SD rats, s.c. 10.0 mg/kg daily x14 d, 1st dose, plasma, LC-MS/MS): 0.807%
T max (male SD rats, s.c. 10.0 mg/kg daily x14 d, 1st dose, plasma, LC-MS/MS, 10 mg/kg): 1 h
AUC_%Extrap_obs (male SD rats, s.c. 10.0 mg/kg daily x14 d, 14th dose, plasma, LC-MS/MS): 0.365%
AUC(0-inf) [4]: 1910 ng·h/mL
AUC(0-t) [4]: 1890 ng·h/mL
Cmax [4]: 591 ng/mL
half-life [4]: 4.58 h
CL/F (male, Sprague-Dawley, rat, plasma, sc, 10 mg/kg, male SD rats, s.c. 10.0 mg/kg daily x14 d, 1st dose, plasma, LC-MS/MS): 87.5 mL/min/kg
Tmax (male, Sprague-Dawley, rat, plasma, sc, 10 mg/kg, male SD rats, s.c. 10.0 mg/kg daily x14 d, 1st dose, plasma, LC-MS/MS, read-out: T max): 1 h
AUC(0-inf) [5]: 1270 ng·h/mL
AUC(0-t) [5]: 1270 ng·h/mL
Cmax [5]: 527 ng/mL
half-life [5]: 0.894 h
CL/F (male, Sprague-Dawley, rat, plasma, sc, 10 mg/kg, male SD rats, s.c. 10.0 mg/kg daily x14 d, 14th dose, plasma, LC-MS/MS): 131 mL/min/kg
MRT at 14 days (male, Sprague-Dawley, rat, plasma, sc, 10 mg/kg, male SD rats, s.c. 10.0 mg/kg daily x14 d, 14th dose, plasma, LC-MS/MS, read-out: MRTInf_obs (mean residence time)): 2.06 h
Tmax (male, Sprague-Dawley, rat, plasma, sc, 10 mg/kg, male SD rats, s.c. 10.0 mg/kg daily x14 d, 14th dose, plasma, LC-MS/MS, read-out: T max): 0.5 h
